Test results taken from article PMC7531004, “Discovery of gramicidin A analogues with altered activities by multidimensional screening of a one-bead-one-compound library” (Nature Communications, 2020).
Where a SMILES comes first, the peptide text is derived from it. [ ]: non-standard residue; d: D form. The star is where a group is joined. NHCH2CH2OH = OCCN*; For = O=C*

Tests used:
[1] = H+/Na+ transport assay of bead-derived peptides (one-point); format: biochemical; design: key: relative activity; mean of two control wells = 1.00; conditions: bead-derived peptide solution, EYPC/EYPG LUVs;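 also: relative to parent gramicidin A activity set to 1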
Procedure, shortened: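 Miniaturized 96-well format. LUVs with entrapped pyranine (1.0 mM) were exposed to peptide for 30 min at RT. Intensities were expressed relative to full lysis by Triton X-100 and no treatment, with control-well mean = 1.00.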

[2] = tested on: Streptococcus pyogenes SSI-9; experiment: Antibacterial activity assay of bead-derived peptides (three concentrations); format: cell-based; design: key: +++: inhibition by the 640-fold diluted peptide solution; ++: inhibition by the 160-fold diluted solution; +: inhibition by the 40-fold diluted solution; -: no inhibition; conditions: S. pyogenes, bead-derived peptide solution, three concentrations
Procedure, shortened: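 First, each peptide stock was diluted 4- and 16-fold in DMSO; next, the three solutions were mixed with S. pyogenes SSI-9 suspension (2 × 10^5 CFU) in cation-adjusted Mueller Hinton Broth plus 5% laked horse blood; finally, plates stood 18 h at 37 °C before checking for grown-cell precipitation.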

[3] = tested on: P388 mouse leukemia cells; conditions: 92 h
Procedure, shortened: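 Peptide stocks diluted 250× in growth medium; P388 cells 1 × 10^4 cells/mL final; 37 °C, 5% CO2, 92 h. WST-1 + 1-methoxy PMS, 4 h, A415. Output: % viability.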

Row | Structure (SMILES) | H+/Na+ transport activity normalized against the value of 1 (1.00) [1] | antibacterial activity [2] | cell viability/% [3]
1 | CC(C)C[C@@H](NC(=O)[C@H](C)NC(=O)CNC(=O)[C@@H](NC=O)C(C)C)C(=O)N[C@@H](C)C(=O)N[C@@H](C(=O)N[C@H](C(=O)N[C@H](CC(C)C)C(=O)N[C@@H](Cc1c[nH]c2ccccc12)C(=O)N[C@H](CC(C)C)C(=O)N[C@@H](Cc1c[nH]c2ccccc12)C(=O)N[C@H](CC(C)C)C(=O)N[C@@H](Cc1c[nH]c2ccccc12)C(=O)N[C@@H](C(=O)N[C@@H](Cc1c[nH]c2ccccc12)C(=O)NCCO)C(C)C)C(C)C)[C@H](C)O [compound 11302] (For-VGA[dL]A[dT]V[dL]W[dL]W[dL]W[dV]W-NHCH2CH2OH) | 1.05 | - | 49.1%
2 | CC(C)C[C@@H](NC(=O)[C@H](Cc1c[nH]c2ccccc12)NC(=O)[C@@H](CC(C)C)NC(=O)[C@@H](NC(=O)[C@H](NC(=O)[C@H](C)NC(=O)[C@H](NC(=O)[C@H](C)NC(=O)CNC(=O)[C@@H](NC=O)C(C)C)[C@H](C)O)C(C)C)C(C)C)C(=O)N[C@@H](Cc1c[nH]c2ccccc12)C(=O)N[C@H](CC(C)C)C(=O)N[C@@H](Cc1c[nH]c2ccccc12)C(=O)N[C@@H](C(=O)N[C@@H](Cc1c[nH]c2ccccc12)C(=O)NCCO)C(C)C [compound 11317] (For-VGA[dT]A[dV]V[dL]W[dL]W[dL]W[dV]W-NHCH2CH2OH) | 1.02 | - | 42.1%
3 | CC(C)C[C@@H](NC(=O)[C@H](C)NC(=O)CNC(=O)[C@@H](NC=O)C(C)C)C(=O)N[C@@H](C)C(=O)N[C@H](CC(C)C)C(=O)N[C@H](C(=O)N[C@H](CC(C)C)C(=O)N[C@@H](Cc1c[nH]c2ccccc12)C(=O)N[C@@H](C(=O)N[C@@H](Cc1c[nH]c2ccccc12)C(=O)N[C@@H](C(=O)N[C@@H](Cc1c[nH]c2ccccc12)C(=O)N[C@@H](C(=O)N[C@@H](Cc1c[nH]c2ccccc12)C(=O)NCCO)C(C)C)C(C)C)C(C)C)C(C)C [compound 11323] (For-VGA[dL]A[dL]V[dL]W[dV]W[dV]W[dV]W-NHCH2CH2OH) | 1.02 | - | 5.2%
4 | CNC(=O)C[C@@H](NC(=O)[C@@H](NC(=O)[C@@H](CC(C)C)NC(=O)[C@H](C)NC(=O)[C@H](NC(=O)[C@H](C)NC(=O)CNC(=O)[C@@H](NC=O)C(C)C)C(C)C)C(C)C)C(=O)N[C@@H](Cc1c[nH]c2ccccc12)C(=O)N[C@H](CC(C)C)C(=O)N[C@@H](Cc1c[nH]c2ccccc12)C(=O)N[C@@H](C(=O)N[C@@H](Cc1c[nH]c2ccccc12)C(=O)N[C@@H](C(=O)N[C@@H](Cc1c[nH]c2ccccc12)C(=O)NCCO)C(C)C)C(C)C [compound 11349] (For-VGA[dV]A[dL]V[dD](NHMe)W[dL]W[dV]W[dV]W-NHCH2CH2OH) | 1.00 | - | 34.3%
5 | CNC(=O)C[C@@H](NC(=O)[C@H](Cc1c[nH]c2ccccc12)NC(=O)[C@@H](CC(C)C)NC(=O)[C@H](Cc1c[nH]c2ccccc12)NC(=O)[C@H](NC(=O)[C@H](Cc1c[nH]c2ccccc12)NC(=O)[C@@H](CC(C)C)NC(=O)[C@@H](NC(=O)[C@H](NC(=O)[C@H](C)NC(=O)[C@H](NC(=O)[C@H](C)NC(=O)CNC(=O)[C@@H](NC=O)C(C)C)C(C)C)C(C)C)C(C)C)C(C)C)C(=O)N[C@@H](Cc1c[nH]c2ccccc12)C(=O)NCCO [compound 11368] (For-VGA[dV]A[dV]V[dL]W[dV]W[dL]W[dD](NHMe)W-NHCH2CH2OH) | 1.01 | - | 61.1%
6 | CC(C)C[C@@H](NC(=O)[C@H](C)NC(=O)[C@H](NC(=O)[C@H](C)NC(=O)CNC(=O)[C@@H](NC=O)C(C)C)C(C)C)C(=O)N[C@H](C(=O)N[C@@H](C(=O)N[C@@H](Cc1c[nH]c2ccccc12)C(=O)N[C@H](CC(C)C)C(=O)N[C@@H](Cc1c[nH]c2ccccc12)C(=O)N[C@@H](C(=O)N[C@@H](Cc1c[nH]c2ccccc12)C(=O)N[C@H](CC(C)C)C(=O)N[C@@H](Cc1c[nH]c2ccccc12)C(=O)NCCO)[C@H](C)O)C(C)C)C(C)C [compound 11374] (For-VGA[dV]A[dL]V[dV]W[dL]W[dT]W[dL]W-NHCH2CH2OH) | 1.07 | + | 45.1%
7 | CNC(=O)C[C@@H](NC(=O)[C@@H](NC(=O)[C@@H](CC(C)C)NC(=O)[C@H](C)NC(=O)[C@H](NC(=O)[C@H](C)NC(=O)CNC(=O)[C@@H](NC=O)C(C)C)C(C)C)C(C)C)C(=O)N[C@@H](Cc1c[nH]c2ccccc12)C(=O)N[C@@H](C(=O)N[C@@H](Cc1c[nH]c2ccccc12)C(=O)N[C@@H](C(=O)N[C@@H](Cc1c[nH]c2ccccc12)C(=O)N[C@@H](C(=O)N[C@@H](Cc1c[nH]c2ccccc12)C(=O)NCCO)C(C)C)C(C)C)C(C)C [compound 11383] (For-VGA[dV]A[dL]V[dD](NHMe)W[dV]W[dV]W[dV]W-NHCH2CH2OH) | 1.09 | - | 55.3%
8 | CNC(=O)C[C@@H](NC(=O)[C@H](Cc1c[nH]c2ccccc12)NC(=O)[C@@H](CC(C)C)NC(=O)[C@H](Cc1c[nH]c2ccccc12)NC(=O)[C@@H](CC(C)C)NC(=O)[C@H](Cc1c[nH]c2ccccc12)NC(=O)[C@H](NC(=O)[C@@H](NC(=O)[C@@H](CC(C)C)NC(=O)[C@H](C)NC(=O)[C@@H](CC(C)C)NC(=O)[C@H](C)NC(=O)CNC(=O)[C@@H](NC=O)C(C)C)C(C)C)C(C)C)C(=O)N[C@@H](Cc1c[nH]c2ccccc12)C(=O)NCCO [compound 11401] (For-VGA[dL]A[dL]V[dV]W[dL]W[dL]W[dD](NHMe)W-NHCH2CH2OH) | 1.09 | - | 56.6%
9 | CC(C)C[C@@H](NC(=O)[C@H](C)NC(=O)CNC(=O)[C@@H](NC=O)C(C)C)C(=O)N[C@@H](C)C(=O)N[C@H](CC(C)C)C(=O)N[C@H](C(=O)N[C@H](CC(C)C)C(=O)N[C@@H](Cc1c[nH]c2ccccc12)C(=O)N[C@@H](C(=O)N[C@@H](Cc1c[nH]c2ccccc12)C(=O)N[C@H](CC(C)C)C(=O)N[C@@H](Cc1c[nH]c2ccccc12)C(=O)N[C@H](CC(C)C)C(=O)N[C@@H](Cc1c[nH]c2ccccc12)C(=O)NCCO)[C@H](C)O)C(C)C [compound 11408] (For-VGA[dL]A[dL]V[dL]W[dT]W[dL]W[dL]W-NHCH2CH2OH) | 1.30 | - | 57.5%
10 | CNC(=O)C[C@@H](NC(=O)[C@H](Cc1c[nH]c2ccccc12)NC(=O)[C@@H](CC(C)C)NC(=O)[C@H](Cc1c[nH]c2ccccc12)NC(=O)[C@@H](CC(C)C)NC(=O)[C@H](Cc1c[nH]c2ccccc12)NC(=O)[C@H](NC(=O)[C@@H](NC(=O)[C@H](NC(=O)[C@H](C)NC(=O)[C@@H](CC(C)C)NC(=O)[C@H](C)NC(=O)CNC(=O)[C@@H](NC=O)C(C)C)C(C)C)C(C)C)C(C)C)C(=O)N[C@@H](Cc1c[nH]c2ccccc12)C(=O)NCCO [compound 11422] (For-VGA[dL]A[dV]V[dV]W[dL]W[dL]W[dD](NHMe)W-NHCH2CH2OH) | 1.04 | + | 47.4%
11 | CC(C)C[C@@H](NC(=O)[C@H](C)NC(=O)CNC(=O)[C@@H](NC=O)C(C)C)C(=O)N[C@@H](C)C(=O)N[C@@H](C(=O)N[C@H](C(=O)N[C@H](CC(C)C)C(=O)N[C@@H](Cc1c[nH]c2ccccc12)C(=O)N[C@H](CC(C)C)C(=O)N[C@@H](Cc1c[nH]c2ccccc12)C(=O)N[C@@H](C(=O)N[C@@H](Cc1c[nH]c2ccccc12)C(=O)N[C@H](CC(C)C)C(=O)N[C@@H](Cc1c[nH]c2ccccc12)C(=O)NCCO)[C@H](C)O)C(C)C)C(C)C [compound 11425] (For-VGA[dL]A[dV]V[dL]W[dL]W[dT]W[dL]W-NHCH2CH2OH) | 1.12 | + | 41.5%
12 | CC(C)C[C@@H](NC(=O)[C@H](C)NC(=O)[C@H](NC(=O)[C@H](C)NC(=O)CNC(=O)[C@@H](NC=O)C(C)C)C(C)C)C(=O)N[C@H](C(=O)N[C@@H](C(=O)N[C@@H](Cc1c[nH]c2ccccc12)C(=O)N[C@@H](C(=O)N[C@@H](Cc1c[nH]c2ccccc12)C(=O)N[C@H](CC(C)C)C(=O)N[C@@H](Cc1c[nH]c2ccccc12)C(=O)N[C@H](CC(C)C)C(=O)N[C@@H](Cc1c[nH]c2ccccc12)C(=O)NCCO)C(C)C)[C@H](C)O)C(C)C [compound 11433] (For-VGA[dV]A[dL]V[dT]W[dV]W[dL]W[dL]W-NHCH2CH2OH) | 1.38 | - | 51.1%
13 | CC(C)C[C@@H](NC(=O)[C@H](C)NC(=O)CNC(=O)[C@@H](NC=O)C(C)C)C(=O)N[C@@H](C)C(=O)N[C@@H](C(=O)N[C@H](C(=O)N[C@@H](C(=O)N[C@@H](Cc1c[nH]c2ccccc12)C(=O)N[C@@H](C(=O)N[C@@H](Cc1c[nH]c2ccccc12)C(=O)N[C@H](CC(C)C)C(=O)N[C@@H](Cc1c[nH]c2ccccc12)C(=O)N[C@@H](C(=O)N[C@@H](Cc1c[nH]c2ccccc12)C(=O)NCCO)C(C)C)C(C)C)C(C)C)C(C)C)C(C)C [compound 11438] (For-VGA[dL]A[dV]V[dV]W[dV]W[dL]W[dV]W-NHCH2CH2OH) | 1.18 | ++ | 100.0%
